Measured values from ChEMBL document CHEMBL1909046, “DrugMatrix in vitro pharmacology data”.

How the values were obtained:
[1] = target: T1, C-X-C chemokine receptor type 2 (Homo sapiens, UniProt P25025); assay type: cell membranes, Membrane; settings: cho-k1; also: in other assays of this panel Not Active means under 50% inhibition at 10 µM
T1 sequence (P25025 whole entry): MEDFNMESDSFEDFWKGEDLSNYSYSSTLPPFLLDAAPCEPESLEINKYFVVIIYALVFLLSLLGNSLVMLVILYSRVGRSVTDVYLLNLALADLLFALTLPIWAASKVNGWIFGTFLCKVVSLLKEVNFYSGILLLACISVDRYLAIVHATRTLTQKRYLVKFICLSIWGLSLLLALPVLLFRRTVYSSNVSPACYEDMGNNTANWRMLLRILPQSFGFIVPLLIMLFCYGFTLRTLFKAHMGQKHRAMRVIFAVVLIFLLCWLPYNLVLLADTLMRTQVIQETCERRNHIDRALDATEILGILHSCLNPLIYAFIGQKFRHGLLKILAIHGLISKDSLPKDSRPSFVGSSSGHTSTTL

[2] = target: D(3) dopamine receptor (Homo sapiens, UniProt P35462); assay: DRUGMATRIX: Dopamine D3 radioligand binding (ligand: [3H] Spiperone); assay type: cell membranes, CHO, Membrane; settings: cho
[3] = target: Mitogen-activated protein kinase 14 (Homo sapiens, UniProt Q16539); design: species or system Escherichia coli;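 also: inhibition of p38alpha enzyme activity in a biochemical kinase assay, with myelin basic protein serving as substrate; in other assays of this panel Not Active means under 50% inhibition at 10 µM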
[4] = target: Platelet-activating factor receptor (Homo sapiens, UniProt P25105); assay: biochemical; assay type: tissue-based; settings: platelet; also: in other assays of this panel Not Active means under 50% inhibition at 10 µM
[5] = target: T2, Cytochrome P450 1A2 (Homo sapiens, UniProt P05177); settings: bti-tn-5b1-4; also: in other assays of this panel Not Active means under 50% inhibition at 10 µM
T2 sequence (P05177 whole entry): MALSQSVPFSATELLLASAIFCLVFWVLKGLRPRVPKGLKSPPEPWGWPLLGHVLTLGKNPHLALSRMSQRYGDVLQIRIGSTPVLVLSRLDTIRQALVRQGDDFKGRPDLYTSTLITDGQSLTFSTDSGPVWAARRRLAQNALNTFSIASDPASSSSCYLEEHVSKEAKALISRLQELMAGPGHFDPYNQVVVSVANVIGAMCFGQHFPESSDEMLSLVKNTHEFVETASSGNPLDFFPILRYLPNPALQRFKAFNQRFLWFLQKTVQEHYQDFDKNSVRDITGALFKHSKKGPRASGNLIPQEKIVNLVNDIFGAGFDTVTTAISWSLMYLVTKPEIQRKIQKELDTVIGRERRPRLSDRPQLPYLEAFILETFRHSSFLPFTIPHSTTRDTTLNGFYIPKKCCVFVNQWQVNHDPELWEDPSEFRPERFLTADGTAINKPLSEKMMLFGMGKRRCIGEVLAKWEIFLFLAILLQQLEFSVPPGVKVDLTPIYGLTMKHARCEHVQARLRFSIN

[6] = target: T3, Calcitonin receptor (Homo sapiens, UniProt P30988); assay type: cell membranes, Membrane; settings: t47d; also: in other assays of this panel Not Active means under 50% inhibition at 10 µM
T3 sequence (P30988 whole entry): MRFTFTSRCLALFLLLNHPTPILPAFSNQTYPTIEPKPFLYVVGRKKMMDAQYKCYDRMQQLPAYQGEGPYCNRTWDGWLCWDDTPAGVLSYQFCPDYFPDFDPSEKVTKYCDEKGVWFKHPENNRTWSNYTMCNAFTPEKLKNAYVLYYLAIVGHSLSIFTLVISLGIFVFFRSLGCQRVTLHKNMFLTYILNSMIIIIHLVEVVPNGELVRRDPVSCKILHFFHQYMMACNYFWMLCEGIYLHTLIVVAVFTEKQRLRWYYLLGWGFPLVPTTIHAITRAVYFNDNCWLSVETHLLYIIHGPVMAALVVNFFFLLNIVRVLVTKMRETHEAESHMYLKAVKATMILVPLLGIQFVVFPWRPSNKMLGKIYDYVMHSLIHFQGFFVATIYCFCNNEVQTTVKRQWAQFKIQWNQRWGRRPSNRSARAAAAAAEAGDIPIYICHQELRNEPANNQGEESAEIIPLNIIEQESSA

[7] = target: Sodium-dependent noradrenaline transporter (Homo sapiens, UniProt P23975); assay: DRUGMATRIX: Norepinephrine Transporter radioligand binding (ligand: [125I] RTI-55); assay type: cell membranes, MDCK, Membrane; settings: mdck; Not Active = under 50% inhibition at 10 µM
[8] = DRUGMATRIX: GABAA, Chloride Channel, TBOB radioligand binding (ligand: [3H] TBOB); assay type: cell membranes, Rattus norvegicus, Wistar, Cerebral cortex, Membrane; settings: Not Active = under 50% inhibition at 10 µM
[9] = target: Cytochrome P450 2C9 (Homo sapiens, UniProt P11712); settings: bti-tn-5b1-4; also: in other assays of this panel Not Active means under 50% inhibition at 10 µM
[10] = target: Voltage-gated inwardly rectifying potassium channel KCNH2 (Homo sapiens, UniProt Q12809); settings: hek293; also: in other assays of this panel Not Active means under 50% inhibition at 10 µM
[11] = target: Mitogen-activated protein kinase 1 (Homo sapiens, UniProt P28482); assay: DRUGMATRIX: Protein Serine/Threonine Kinase, ERK2 enzyme inhibition (substrate: Myelin Basic Protein); design: species or system Escherichia coli; settings: Not Active = under 50% inhibition at 10 µM
[12] = target: Cytochrome P450 2C19 (Homo sapiens, UniProt P33261); settings: bti-tn-5b1-4; also: in other assays of this panel Not Active means under 50% inhibition at 10 µM
[13] = target: Melanocortin receptor 3 (Homo sapiens, UniProt P41968); assay type: cell membranes, Membrane; settings: hek293; also: in other assays of this panel Not Active means under 50% inhibition at 10 µM
[14] = target: Cytochrome P450 2D6 (Homo sapiens, UniProt P10635); settings: bti-tn-5b1-4; also: in other assays of this panel Not Active means under 50% inhibition at 10 µM
[15] = target: Sigma non-opioid intracellular receptor 1 (Homo sapiens, UniProt Q99720); assay: DRUGMATRIX: Sigma1 radioligand binding (ligand: [3H] Haloperidol); assay type: cell membranes, Jurkat, Membrane; settings: Not Active = under 50% inhibition at 10 µM
[16] = target: Cytochrome P450 2E1 (Homo sapiens, UniProt P05181); settings: bti-tn-5b1-4; also: in other assays of this panel Not Active means under 50% inhibition at 10 µM
[17] = target: Estrogen receptor beta (Homo sapiens, UniProt Q92731); settings: sf9; also: in other assays of this panel Not Active means under 50% inhibition at 10 µM
Estrogen receptor beta, sequence (Q92731 whole entry): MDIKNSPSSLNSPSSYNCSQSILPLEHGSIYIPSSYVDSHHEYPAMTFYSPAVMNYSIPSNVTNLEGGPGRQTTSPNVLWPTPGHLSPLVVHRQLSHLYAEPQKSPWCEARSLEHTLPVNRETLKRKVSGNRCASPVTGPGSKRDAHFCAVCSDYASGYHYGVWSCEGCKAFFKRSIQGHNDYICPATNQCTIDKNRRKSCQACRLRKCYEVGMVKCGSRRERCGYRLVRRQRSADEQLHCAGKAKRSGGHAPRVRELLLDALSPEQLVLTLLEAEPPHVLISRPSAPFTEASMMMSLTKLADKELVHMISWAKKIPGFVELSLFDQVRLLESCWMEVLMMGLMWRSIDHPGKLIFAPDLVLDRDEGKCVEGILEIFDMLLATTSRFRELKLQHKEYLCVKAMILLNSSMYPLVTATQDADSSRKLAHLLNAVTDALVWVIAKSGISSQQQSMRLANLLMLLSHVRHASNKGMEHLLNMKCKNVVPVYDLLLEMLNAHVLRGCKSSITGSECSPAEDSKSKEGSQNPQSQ

Mitogen-activated protein kinase 1, sequence (P28482 whole entry): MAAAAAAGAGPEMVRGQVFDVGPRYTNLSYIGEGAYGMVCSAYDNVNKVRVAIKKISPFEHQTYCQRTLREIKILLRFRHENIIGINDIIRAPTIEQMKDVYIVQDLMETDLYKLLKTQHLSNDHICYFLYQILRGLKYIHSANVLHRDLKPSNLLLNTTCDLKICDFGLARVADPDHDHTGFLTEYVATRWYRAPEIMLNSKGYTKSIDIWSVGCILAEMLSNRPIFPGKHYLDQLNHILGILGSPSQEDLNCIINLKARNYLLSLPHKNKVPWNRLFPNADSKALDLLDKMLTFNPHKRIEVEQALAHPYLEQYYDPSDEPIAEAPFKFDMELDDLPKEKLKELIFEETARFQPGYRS
Sigma non-opioid intracellular receptor 1, sequence (Q99720 whole entry): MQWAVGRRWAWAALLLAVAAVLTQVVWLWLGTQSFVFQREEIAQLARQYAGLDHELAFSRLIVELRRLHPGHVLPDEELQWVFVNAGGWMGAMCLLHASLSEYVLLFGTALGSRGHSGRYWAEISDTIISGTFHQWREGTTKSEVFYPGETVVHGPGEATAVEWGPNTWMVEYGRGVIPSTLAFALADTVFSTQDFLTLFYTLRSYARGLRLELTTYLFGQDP
Voltage-gated inwardly rectifying potassium channel KCNH2, sequence (Q12809 whole entry): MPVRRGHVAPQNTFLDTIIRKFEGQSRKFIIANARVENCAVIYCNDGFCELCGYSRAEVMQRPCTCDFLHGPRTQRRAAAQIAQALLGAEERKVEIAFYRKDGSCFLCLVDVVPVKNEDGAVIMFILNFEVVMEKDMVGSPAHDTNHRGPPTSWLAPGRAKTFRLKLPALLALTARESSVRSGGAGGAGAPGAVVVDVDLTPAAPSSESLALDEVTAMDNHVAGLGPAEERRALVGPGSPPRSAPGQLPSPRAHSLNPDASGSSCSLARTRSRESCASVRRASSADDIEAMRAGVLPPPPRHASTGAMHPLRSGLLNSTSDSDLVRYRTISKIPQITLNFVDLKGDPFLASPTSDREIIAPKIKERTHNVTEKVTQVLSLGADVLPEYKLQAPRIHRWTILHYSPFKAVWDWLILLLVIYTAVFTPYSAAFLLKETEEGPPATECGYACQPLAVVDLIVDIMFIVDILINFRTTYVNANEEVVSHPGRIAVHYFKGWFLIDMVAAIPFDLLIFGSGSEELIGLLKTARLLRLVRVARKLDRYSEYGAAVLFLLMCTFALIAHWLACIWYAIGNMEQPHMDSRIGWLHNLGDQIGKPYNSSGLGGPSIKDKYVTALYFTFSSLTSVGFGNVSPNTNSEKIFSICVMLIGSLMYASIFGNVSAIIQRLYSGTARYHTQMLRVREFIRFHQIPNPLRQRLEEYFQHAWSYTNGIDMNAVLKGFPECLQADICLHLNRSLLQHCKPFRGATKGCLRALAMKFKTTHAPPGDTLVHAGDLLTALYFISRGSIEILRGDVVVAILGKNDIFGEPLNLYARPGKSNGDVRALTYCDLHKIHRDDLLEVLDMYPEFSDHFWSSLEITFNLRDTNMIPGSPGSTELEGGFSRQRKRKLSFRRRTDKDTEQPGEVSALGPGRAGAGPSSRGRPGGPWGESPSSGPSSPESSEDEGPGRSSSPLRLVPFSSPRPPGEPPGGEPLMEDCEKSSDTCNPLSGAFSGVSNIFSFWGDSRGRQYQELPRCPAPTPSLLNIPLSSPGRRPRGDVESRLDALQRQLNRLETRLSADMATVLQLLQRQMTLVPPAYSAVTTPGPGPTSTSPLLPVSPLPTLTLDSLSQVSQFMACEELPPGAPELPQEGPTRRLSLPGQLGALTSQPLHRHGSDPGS
Sodium-dependent noradrenaline transporter, sequence (P23975 whole entry): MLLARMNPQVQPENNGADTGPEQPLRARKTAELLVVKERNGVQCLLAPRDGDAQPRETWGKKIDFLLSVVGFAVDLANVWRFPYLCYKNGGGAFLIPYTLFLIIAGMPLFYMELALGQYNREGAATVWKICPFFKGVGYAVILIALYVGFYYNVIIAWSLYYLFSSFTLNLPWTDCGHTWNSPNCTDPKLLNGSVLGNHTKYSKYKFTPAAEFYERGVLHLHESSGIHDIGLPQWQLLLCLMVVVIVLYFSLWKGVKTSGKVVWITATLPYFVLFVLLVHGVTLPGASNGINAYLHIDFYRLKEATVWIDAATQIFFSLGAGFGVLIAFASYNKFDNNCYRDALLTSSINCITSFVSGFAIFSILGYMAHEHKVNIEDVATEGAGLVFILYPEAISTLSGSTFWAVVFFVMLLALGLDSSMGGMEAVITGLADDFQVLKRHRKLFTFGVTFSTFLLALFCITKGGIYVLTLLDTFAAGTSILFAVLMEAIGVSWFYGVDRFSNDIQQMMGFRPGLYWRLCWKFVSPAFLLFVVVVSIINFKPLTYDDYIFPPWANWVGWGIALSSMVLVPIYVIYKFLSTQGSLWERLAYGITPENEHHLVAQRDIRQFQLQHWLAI
Cytochrome P450 2D6, sequence (P10635 whole entry): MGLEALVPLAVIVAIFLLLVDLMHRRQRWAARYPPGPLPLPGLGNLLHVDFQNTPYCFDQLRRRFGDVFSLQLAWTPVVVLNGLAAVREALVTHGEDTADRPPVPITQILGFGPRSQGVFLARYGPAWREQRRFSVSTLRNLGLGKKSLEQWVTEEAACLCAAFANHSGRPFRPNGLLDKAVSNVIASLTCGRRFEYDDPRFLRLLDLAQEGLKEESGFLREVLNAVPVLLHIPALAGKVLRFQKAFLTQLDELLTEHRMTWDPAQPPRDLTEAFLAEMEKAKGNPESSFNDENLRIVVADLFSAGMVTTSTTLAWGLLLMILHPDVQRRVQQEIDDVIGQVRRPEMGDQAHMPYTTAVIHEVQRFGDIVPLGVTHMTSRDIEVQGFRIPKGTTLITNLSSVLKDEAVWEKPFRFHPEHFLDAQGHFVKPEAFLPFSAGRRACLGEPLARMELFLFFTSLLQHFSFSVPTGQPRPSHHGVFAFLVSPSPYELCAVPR
Cytochrome P450 2E1, sequence (P05181 whole entry): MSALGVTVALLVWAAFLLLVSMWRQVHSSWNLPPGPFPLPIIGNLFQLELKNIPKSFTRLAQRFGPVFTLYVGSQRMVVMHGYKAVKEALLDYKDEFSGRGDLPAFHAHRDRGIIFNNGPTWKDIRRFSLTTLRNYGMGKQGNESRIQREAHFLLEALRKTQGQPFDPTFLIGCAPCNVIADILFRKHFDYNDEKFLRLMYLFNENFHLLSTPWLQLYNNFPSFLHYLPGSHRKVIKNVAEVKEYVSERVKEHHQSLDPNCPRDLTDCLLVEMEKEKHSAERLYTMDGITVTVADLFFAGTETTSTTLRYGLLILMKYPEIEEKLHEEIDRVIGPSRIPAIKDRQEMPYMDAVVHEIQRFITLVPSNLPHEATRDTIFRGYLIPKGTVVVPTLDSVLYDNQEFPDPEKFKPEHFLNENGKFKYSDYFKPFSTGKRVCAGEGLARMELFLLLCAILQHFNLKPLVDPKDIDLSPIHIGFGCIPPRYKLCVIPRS
Platelet-activating factor receptor, sequence (P25105 whole entry): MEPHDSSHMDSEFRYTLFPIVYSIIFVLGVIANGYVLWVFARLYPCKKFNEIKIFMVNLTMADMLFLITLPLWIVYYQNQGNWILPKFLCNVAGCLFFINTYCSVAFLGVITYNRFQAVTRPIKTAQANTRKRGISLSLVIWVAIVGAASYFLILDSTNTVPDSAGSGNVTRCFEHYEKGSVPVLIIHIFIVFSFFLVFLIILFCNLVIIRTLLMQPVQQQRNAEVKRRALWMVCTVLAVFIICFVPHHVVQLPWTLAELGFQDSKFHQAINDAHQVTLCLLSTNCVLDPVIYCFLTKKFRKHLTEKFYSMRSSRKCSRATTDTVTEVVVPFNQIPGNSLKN
Cytochrome P450 2C19, sequence (P33261 whole entry): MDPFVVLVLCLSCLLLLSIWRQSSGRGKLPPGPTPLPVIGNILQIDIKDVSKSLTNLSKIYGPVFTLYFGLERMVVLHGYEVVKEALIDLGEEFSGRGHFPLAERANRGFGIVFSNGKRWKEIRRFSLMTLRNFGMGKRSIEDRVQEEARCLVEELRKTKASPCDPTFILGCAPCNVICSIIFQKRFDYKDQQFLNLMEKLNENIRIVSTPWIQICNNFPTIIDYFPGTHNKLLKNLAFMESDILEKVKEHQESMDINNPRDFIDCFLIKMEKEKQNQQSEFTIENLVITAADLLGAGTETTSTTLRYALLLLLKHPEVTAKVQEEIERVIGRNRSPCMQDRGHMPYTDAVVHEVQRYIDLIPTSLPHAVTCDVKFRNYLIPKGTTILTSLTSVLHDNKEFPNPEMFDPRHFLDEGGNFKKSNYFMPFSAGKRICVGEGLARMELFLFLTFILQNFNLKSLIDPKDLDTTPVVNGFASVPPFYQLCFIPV

Row | SMILES | IC50 [1] | IC50 [2] | IC50 [3] | IC50 [4] | IC50 [5] | Ki [5] | IC50 [6] | IC50 [7] | IC50 [8] | Ki [8] | IC50 [9] | Ki [9] | IC50 [10] | Ki [10] | IC50 [11] | IC50 [12] | Ki [12] | IC50 [13] | IC50 [14] | Ki [14] | further results
1 | CC1CN(c2cc3c(cc2F)c(=O)c(C(=O)O)cn3-c2ccc(F)cc2F)CCN1 (stereo unspecified) [TEMAFLOXACIN] | Not Active | Not Active | Not Active | Not Active | Not Active | Not Active | Not Active | Not Active | Not Active | Not Active | Not Active | Not Active | Not Active | Not Active | Not Active | Not Active | Not Active | Not Active | Not Active | Not Active | IC50 ([15]; jurkat): Not Active; IC50 [16]: Not Active; Ki [16]: Not Active; IC50 [17]: Not Active
2 | Cc1ccc(C(=O)C(C)CN2CCCCC2)cc1 (stereo unspecified) [TOLPERISONE] | Not Active | Not Active | Not Active | Not Active | Not Active | Not Active | Not Active | Not Active | Not Active | Not Active | Not Active | Not Active | Not Active | Not Active | Not Active | Not Active | Not Active | Not Active | Not Active | Not Active | IC50 ([15]; read-out: IC50): 13 nM; Ki ([15]; read-out: Ki): 5.59 nM; IC50 [16]: Not Active; Ki [16]: Not Active; IC50 [17]: Not Active
3 | CN1[C@@H]2CC[C@H]1C[C@@H](OC(=O)c1c[nH]c3ccccc13)C2 [TROPISETRON] | Not Active | Not Active | Not Active | Not Active | Not Active | Not Active | Not Active | Not Active | Not Active | Not Active | Not Active | Not Active | Not Active | Not Active | Not Active | Not Active | Not Active | Not Active | Not Active | Not Active | IC50 ([15]; jurkat): Not Active; IC50 [16]: Not Active; Ki [16]: Not Active; IC50 [17]: Not Active
4 | COc1cc(C(=O)NC2CCCNC2)cc(OC)c1OC (stereo unspecified) [TROXIPIDE] | Not Active | Not Active | Not Active | Not Active | Not Active | Not Active | Not Active | Not Active | Not Active | Not Active | Not Active | Not Active | Not Active | Not Active | Not Active | Not Active | Not Active | Not Active | Not Active | Not Active | IC50 ([15]; jurkat): Not Active; IC50 [16]: Not Active; Ki [16]: Not Active; IC50 [17]: Not Active
5 | CC(C)[C@H](N)C(=O)OCCOCn1cnc2c(=O)nc(N)[nH]c21 [VALACYCLOVIR] | Not Active | Not Active | Not Active | Not Active | Not Active | Not Active | Not Active | Not Active | Not Active | Not Active | Not Active | Not Active | Not Active | Not Active | Not Active | Not Active | Not Active | Not Active | Not Active | Not Active | IC50 ([15]; jurkat): Not Active; IC50 [16]: Not Active; Ki [16]: Not Active; IC50 [17]: Not Active
